Laboratory results published in paper PMC5539802 (2014).

Legend:
[1] = system: PS2.M (DNA, G4) GTGGGTAGGGCGGGTTGG; assay: luminescence enhancement; details: 100 mM K+ (annealing); 1 μM complex, 5 μM DNA; 20 mM Tris-HCl pH 7.0
[2] = system: F10T (DNA, hairpin, hexaethylene glycol (HEG) linker between nucleotides 8 and 9) TATAGCTATATAGCTATAT; assay: FRET melting; details: 10 mM Li+; lithium cacodylate pH 7.4; same complex concentration as F21T
[3] = system: F21T (DNA, G4) GGGTTAGGGTTAGGGTTAGGG; assay: FRET melting; details: 100 mM K+; potassium cacodylate pH 7.0; 200 nM DNA; complex concentration not in material
[4] = system: ON1-ON2 duplex substrate (DNA, duplex) GTGGGTAGGGCGGGTTGGTGGCGACGGCAGCGAGGCAGAGGAGCAGAGGGAGCA/GCCTCGCTGCCGTCGCCACCAACCCGCCC; assay: luminescence enhancement; details: 20 mM K+, 150 mM NH4+; 20 mM Tris pH 7.2; 1 μM complex; duplex without helicase unwinding
[5] = system: ds17 (DNA, duplex) CCAGTTCGTAGTAACCC/GGGTTACTACGAACTGG; assay: G4-FID thiazole orange displacement; details: Tris-HCl buffer; thiazole orange 0.5 μM displaced; less effective than for Pu27
[6] = system: ON1 (DNA, G4) GTGGGTAGGGCGGGTTGGTGGCGACGGCAGCGAGGCAGAGGAGCAGAGGGAGCA; assay: luminescence enhancement; details: 20 mM K+, 150 mM NH4+; 20 mM Tris pH 7.2; 1 μM complex; G-quadruplex released by helicase unwinding of ON1-ON2

Row | binding [1] | ΔTm [2] | ΔTm [3] | binding [4] | binding [5] | binding [6] | SMILES
1 | yes | – | – | – | – | – | Clc1cc2cccnc2c2ncccc12.[Ir+3].[c-]1ccccc1-c1ccc2ccccc2n1.[c-]1ccccc1-c1ccc2ccccc2n1
2 | yes | 4 °C | ~ 13 °C | weak | weak | yes | [Ir+3].[c-]1ccccc1-c1ccc2ccccc2n1.[c-]1ccccc1-c1ccc2ccccc2n1.c1cnc2c(c1)ccc1cccnc12
